{
  "source": "ChEMBL document CHEMBL1136434",
  "about": "“5-aryl-pyrazolo[3,4-b]pyridazines: potent inhibitors of glycogen synthase kinase-3 (GSK-3)” (Bioorg Med Chem Lett, 2003)",
  "data": [
    {"target": "Cyclin-dependent kinase 2 (Homo sapiens) (UniProt P24941)", "units": {"cKi": "nM"}, "values": [
      {"smiles": "O=C(Nc1n[nH]c2nnc(-c3cccc(F)c3F)cc12)C1CCCC1", "cKi": 5},
      {"smiles": "CN(C)CCCC(=O)Nc1n[nH]c2nnc(-c3ccccc3)cc12", "cKi": 1700},
      {"smiles": "CCN1CCC(C(=O)Nc2n[nH]c3nnc(-c4cccc(F)c4F)cc23)CC1", "cKi": 450},
      {"smiles": "O=C(Nc1n[nH]c2nnc(-c3cccnc3)cc12)C1CC1", "cKi": 5},
      {"smiles": "CCN1CCC(CC(=O)Nc2n[nH]c3nnc(-c4cccc(F)c4F)cc23)CC1", "cKi": 540}
    ]}
  ]
}
